This is an account of results in US6492492B1, “Circularly permuted biotin binding proteins” (University of Washington, priority 1998, dated 2002).

Several values for one entry are separate records, joined by “and”; a condition that tells them apart may be missing. Equal entries are not always repeated. Where two headings read alike, the source gives them in different places.

Experiment [1] is described as follows: Isothermal titration calorimetry of biotin binding. As to conditions: for ΔCp: Table 1a, CP51/46 in PB; for ΔCp observed: change in heat capacity of biotin association, linear fit of ΔH° versus temperature. As to the method: Isothermal titration calorimetry (ITC) experiments on wild-type streptavidin were performed on a MicroCal Omega instrument. ITC experiments on CP51/46 were done using a Calorimetry Science Corporation 4200 Calorimeter (Provo, Utah). CP51/46 solutions of 30-40 μM concentration were titrated by the addition of 20×5μL aliquots of 750 μM biotin dissolved in the same buffer as the protein. All ITC experiments were done in either phosphate (50 mM sodium phosphate, 100 mM NaCl, pH 7.75) or Tris (50 mM Tris HCl, 100 mM NaCl, pH 7.75) buffers. Biotin concentrations were determined gravimetrically. Data were analyzed using the proprietary software supplied by Calorimetry Science Corporation with the instrument. Heats of dilution for each injection were subtracted from the reaction heats before data analysis. Nonlinear fitting of the data allowed the number of binding sites (n), association constant (Ka), and binding enthalpy (ΔH°) to be determined assuming noncooperative binding and one site per subunit.
(ITC needs no label: the signal is the heat of the interaction.)

For experiment [2] the following is noted: wild-type, cited from earlier work; for Ka: biotin association, estimated (Green 1990); for ΔH°: 25° C. (Chilkoti 1995).
Where [3] appears, read: Tris buffer, per mol of subunits.
Setting [4] is: phosphate buffer (PB), 25° C., per mol of subunits.

In experiment [1] (per mol of subunits), “wild-type: Wild-type core streptavidin (SEQ ID NO:1), comparator for biotin binding [reference compound]” registered a ΔCp of -345 ± 12 cal/mol·°C. In experiment [1], this molecule returned a ΔCp observed of −345 cal/mol° C. Besides, the “TΔS°” value was -6.6 ± 0.4 kcal/mol in experiment [1] (wild-type, 25° C., from estimated Ka and Gibb's free energy); -6.6 kcal/mol in experiment [1] (wild-type, 25° C., from estimated Ka and Gibb's free energy, listed as wild-type streptavidin). Further, in experiment [1] (wild-type, from estimated Ka, per mol of subunits), the “ΔG°” value was -18 kcal/mol. Moreover, the Ka was 2.5e+13 M⁻¹ in experiment [2], approximately 2.5e+13 M⁻¹ in experiment [2] (listed as Wild-type streptavidin) and “approximately 2.5×10^13 M^−1” in experiment [2] (listed as streptavidin). For the same molecule, the figures for the “ΔH°” value in experiment [2] and in experiment [2] (listed as wild type streptavidin) were -24.9 ± 0.4 kcal/mol and -24.9 kcal/mol, respectively.

B1: CP51/46: Circularly permuted core streptavidin; termini 13 and 139 joined by GGGS linker, loop residues 47-50 removed, new termini Glu51 and Ala46 (SEQ ID NO:4) (protein)
chain: MESRYVLTGRYDSAPATDGSGTALGWTVAWKNNYRNAHSATTWSGQYVGGAEARINTQWLLTSGTTEANAWKSTLVEHDTFTKVKPSAASGGGSAEAGITGTWYNQLGSTFIVTAGADGALTGTYESA
In experiment [1] (per mol of subunits), B1 registered a ΔCp of -95 ± 29 cal/mol·°C. In experiment [1] (setting [3]), the “TΔS°” value is -3.3 ± 0.7 kcal/mol, the “ΔG°” value was -10.1 kcal/mol and the “ΔH°” value is -13.4 ± 0.7 kcal/mol. Besides, the Ka entry in experiment [1] (biotin association, Tris buffer pH 7.75, per mol of subunits) is given as “(2.47 ± 1.87) × 10^7 M^−1”. The ΔCp observed in experiment [1] was −95 cal/mol° C. In experiment [1] (setting [4]), the “TΔS°” value is −3.8 (±0.8) kcal/mol and −3.8 ± 0.8 kcal/mol; the “ΔG°” value is -10.0 kcal/mol; the “ΔH°” value was −13.8 (±0.8) kcal/mol and −13.8 ± 0.8 kcal/mol.
